The source of these data is US20220323427A1, “SOMATOSTATIN RECEPTOR TYPE 5 AGONIST FOR THE TREATMENT OF HYPERINSULINISM” (Crinetics Pharmaceuticals, Inc., priority 2021, published 2022).

Data set [1] relates to human pancreatic islets. Description: Insulin secretion in perifused human islets. The data set is classed as cell-based. The conditions noted are these: for Effect on glucose- and tolbutamide-stimulated insulin secretion: G16.7 and G16.7+Tolb. The protocol:
The activity of Compound 1 on insulin and glucagon secretion in human pancreatic islets from three healthy adult donors (Prodo Labs, Aliso Viejo, Calif.) was evaluated using a perifusion system that enables dynamic insulin and glucagon measurements from the same islet preparation in response to different stimuli. Specifically, the effects on glucose-stimulated and sulfonylurea (tolbutamide)-stimulated insulin secretion and arginine-stimulated glucagon secretion were investigated and compared to those of a maximally effective concentration of diazoxide. Islets were collected in culture media (Prodo Labs #PIM-S001GMP) supplemented with 5% human AB serum (Prodo Labs #PIM-ABS001GMP), 1% glutamine-glutathione (Prodo Labs #PIM-G001GMP) and an antibiotic cocktail of amphotericin B, ciproflaxin and gentamicin (Prodo Labs #PIM-3X001GMP) and plated at a density of 1500-3000 islet equivalents (IEQ) in 10-cm nontreated tissue culture dishes (Thomas Scientific #1182M59). Islets were cultured at 37° C., 5% CO2 and 95% humidity for 20 h. Dynamic insulin secretion assays were performed using a perifusion system, Peri5 (Biorep Technologies, FL. Glucose (Boston BioProducts #BM-675) at 3 mM (G3) or 16.7 mM (G16.7), or glucose at 16.7 mM plus 100 μM tolbutamide (Sigma #T0891; G16.7+Tolb) were prepared in perifusion buffer, PB=[24 mM NaHCO3 (Fisher Scientific #S233-500), 120 mM NaCl (Spectrum Chemical #S0155), 4.8 mM KCl (Fisher Scientific #P217-500), 2.5 mM CaCl2 (Fisher Scientific #C614-500), 1.2 mM MgCl2 (Sigma #M8266), 10 mM HEPES (Gibco #15630-080) and 0.1% BSA (EMD Millipore #12675-100GM)]. Various concentrations of Compound 1 and diazoxide (Sigma #D9035) were prepared in G16.7 or in G16.7+Tolb. […] Insulin concentration was quantified using the commercially-available Mercodia Insulin ELISA (Mercodia #10-1113-10) kit. […] The optical density of each well was determined at 450 nm in a Tecan M1000Pro (Tecan, Switzerland) multiplate reader. Insulin concentrations were calculated by regression to the standard curve using GraphPad Prism (GraphPad, San Diego, Calif.).

Data set [2] relates to human pancreatic islets. Description: Glucagon secretion in perifused human islets. The data set is classed as cell-based. To be noted: islets from a healthy donor; G3+Arg. The method, then:
For glucagon secretion, glucose (Boston BioProducts #BM-675) solutions, G3, G16.7 and G3 plus 20 mM arginine (Sigma #A8094; G3+Arg) were prepared in PB [24 mM NaHCO3 (Fisher Scientific #S233-500), 120 mM NaCl (Spectrum Chemical #S0155), 4.8 mM KCl (Fisher Scientific #P217-500), 2.5 mM CaCl2 (Fisher Scientific #C614-500), 1.2 mM MgCl2 (Sigma #M8266), 10 mM HEPES (Gibco #15630-080) and 0.1% BSA (EMD Millipore #12-675-100GM)]. Various concentrations of Compound 1 and diazoxide (Sigma #D9035) were prepared in G16.7 or in G3+Arg. On the day of the assay, ten perifusion chambers (Biorep #Peri-chamber) were loaded with a bead suspension (Biorep #Peri-beads-20) followed by 300 IEQ and another layer of bead suspension. Chambers were filled with PB, placed in the perifusion equipment and equilibrated with G3 for 74 min (flow rate=230 μL/min) followed by the perifusion steps for glucagon secretion shown in Table 3. […] Glucagon concentration was quantified using the commercially-available Mercodia Glucagon ELISA (Mercodia #10-1271-01) kit. undiluted perfusate samples were added to the supplied pre-coated assay plates. […] The optical density of each well was determined at 450 nm in a Tecan M1000Pro (Tecan, Switzerland) multiplate reader. Glucagon concentrations were calculated by regression to the standard curve using GraphPad Prism (GraphPad, San Diego, Calif.).

A short description of data set [3]: Exposure in non-fasted male rats. The conditions noted are these: Sprague Dawley, rat, in vivo, oral, 10 mg/kg.
Data set [4] is described as follows: SAD study pharmacokinetics. The data set is classed as in vivo, human. The text has this:
This Phase 1, first-in-human, double-blind, randomized, placebo-controlled study will evaluate the safety of Compound 1 in healthy volunteers as well as the relationship between exposure and key pharmacodynamic (PD) parameters. The study will initiate with a single ascending dose (SAD) phase followed by a multiple ascending dose (MAD) phase. Food effect will also be evaluated in subset of subjects in the SAD phase. Results will be used to inform endpoints and other parameters in later studies in patients with congenital HI.
SAD 1a/Part 1a: ascending single dose, randomized, placebo-controlled, double-blind; up to 10 cohorts, n=8/cohort; subjects in SAD 1a will undergo an IVGTT. Doses will escalate from 0.5 mg to 120 mg.
SAD 1c/Part 1c: single dose, 1-arm crossover food effect investigation; 1 cohort, n=6; SAD 1c will not be placebo-controlled or blinded. The dose is 120 mg.
In SAD 1c, subjects will participate in a 1-arm crossover investigation to evaluate the effect of a high-fat meal on Compound 1 absorption.

Structures are written as SMILES.

`C[C@H](NC(=O)c1cnc(C#N)c(-c2cc(F)cc(F)c2)c1N1CC[C@H](N)C1)C(F)(F)F` [Compound 1, 4-[(3S)-3-aminopyrrolidin-1-yl]-6-cyano-5-(3,5-difluorophenyl)-N-[(2S)-1,1,1-trifluoropropan-2-yl]pyridine-3-carboxamide]: the “Effect on glucose- and tolbutamide-stimulated insulin secretion” value in the data set with human pancreatic islets [1] (0.1 μM) is recorded as “intermediate effect”; in the data set on human pancreatic islets [1] (1 μM, both phases), “strongest inhibitory effect”. Besides, the “Insulin secretion in response to 16.7 mM glucose and tolbutamide” value with human pancreatic islets [1] (concentration dependent, islets from three healthy adult donors) was “inhibited insulin secretion”. For the same compound, the “Inhibition of arginine-stimulated glucagon secretion” value in the data set with human pancreatic islets [2] was “up to 24%”. In data set [3], this compound had an AUC of 590 ng·h/mL. This compound also had a Cmax in data set [3] of 45 ng/mL. In addition, the “Food effect on exposure” value in data set [4] (120 mg within 30 minutes of a high fat breakfast) was “significant reduction in exposure”. Further, the time of peak concentration (Tmax) in data set [4] (human, in vivo, single oral dose, at efficacious doses) was in the range of 1 to 2 h. This compound also had a half-life in data set [4] (human, in vivo, single oral dose, healthy volunteers) of around 40 h. Also, in data set [4] (single oral doses 0.5 to 120 mg), the “Oral bioavailability and dose proportionality” value was “oral bioavailability with dose-proportional exposure”.

As usually defined, the AUC is concentration integrated over time. Higher therefore signals high exposure. Broadly, the Cmax is the highest concentration seen after dosing. A word on the Tmax: it is the time from dosing to the highest level. By half-life is commonly meant the time needed for the level to fall by half in the phase considered. The low end stands for fast loss, the high end for slow loss.
